One test addresses HDAC1 (Homo sapiens, UniProt Q13547). The test is described as follows: Simple Western immunoassay, HDAC1 levels in MM.1S cell lysates. In kind it is cell-based. Also on record: endogenous in cells; host or cells: MM.1S. The following applies: MM.1S cells, 10 μM; for reduction of HDAC1 levels: 24 h. On the procedure:
Figure 3 Initial degradation screening of HDAC1 and 6 by DCAF11‐recruiting PROTACs by Simple Western™ immunoassay analysis of MM.1S cell lysates. MM.1S cells were treated with the indicated compound (10 μM) or vehicle (DMSO) for 24 h. […] Bottom: Representative images from a total of n=3 biological replicates, labeled with spacer type; w/o: without spacer.
2. Biological Experiments
No unexpected or unusually high safety hazards were encountered.
The human multiple myeloma cell line MM.1S (CRL-2974) was obtained from American Type Culture Collection (ATCC, Manassas, VA, USA). The semi-adherent cells were cultivated in RPMI 1640 medium (Catalog#21875-034, Gibco, ThermoFisher Scientific Inc., Waltham, MA, USA) supplemented with 10% FBS (PAN Biotech GmbH; Aidenbach, Germany), 100 IU/mL penicil lin, 0.1 mg/mL streptomycin (PAN Biotech GmbH) and 1 mM sodium pyruvate (ThermoFisher Scientific Inc.). […]
(PAN Biotech GmbH). All cells were cultured at 37 °C in a 5% CO2 atmosphere. Incubation times, as part of assay protocols, were performed under these conditions as well. The semi-adherent MM.1S were detached mechanically by using a cell scraper and the adhered […] were trypsinased by trypsin/EDTA (0.05%/0.02% in DPBS, PAN Biotech GmbH) whereas the U-87MG were detached by […]
2.2. Simple Western™ Immunoassay
For the cell lysates, MM.1S (0.5 × 10^6 cells/mL) or U-87MG (0.18 × 10^6 cells/mL) cells were seeded and incubated with the indicated concentration of compound or vehicle (DMSO) for the given time. The adherent cells were cultured for 24 h under cell culture conditions for attachment before treatment. Cell lysis was performed with Cell Extraction Buffer (10 mM Tris, pH 7.4, 100 mM NaCl, 1 mM EDTA, […]
SDS, 0.5% deoxycholate; Catalog# FNN0011, Thermo Fisher Scientific Inc., Waltham, MA, USA) with addition of Halt Protease Inhibitor Cocktail (100×) (Catalog# 78429, Life Technologies GmbH, Carlsbad, CA, USA) and phenylmethanesulfonyl fluoride (Catalog# 10837091001, Sigma-Aldrich, St.
Louis, MO, USA) according to manufacturer´s instructions. Protein content was determined by Pierce™ BCA Protein Assay Kit (Catalog# 23225, Thermo Fisher Scientific Inc.) according to manufacturer´s guidelines. Cell lysates were diluted to a final concentration of 1 mg/mL and denatured according to manufacturer’s guidelines. Anti-HDAC1 (Catalog# 5356S, Cell Signaling Technology, Denver, MA, USA), anti-HDAC6 (Catalog#7558S, Cell Signaling Technology) and anti-GAPDH (Catalog# 2118S, […]
Fluorescence Separation 8x25 Capillary Cartridges (Catalog# SM-FL004-1, Protein Simple, Bio-Techne, Minneapolis, MN, USA) were used for separation and the Anti-Mouse Detection Module (Catalog# DM-002, Protein Simple) was used for detection with addition of 20x Anti-Rabbit HRP […]
Conjugate (Catalog# 043-426, Protein Simple) according to manufacturer´s instructions. The assay was performed with the Jess Simple Western System (catalog# 004-650, Protein Simple), according to manufacturer´s settings. Evaluation and quantification was performed with the compass software (6.2.0, Protein Simple). GraphPad Prism (GraphPad Software, San Diego, CA, USA) was used for normalization, statistical analysis and bar graph creation. Significance testing was performed with a one-way analysis of variance (ANOVA). […]
of each mean compared to a reference mean value. […]
AMC (Catalog# 233691-67-3, BLD pharma) was prepared with and without IGEPAL CA-630 (0.5%, Catalog# J61055, Alfa Aesar). 10 µL of the substrate solution was added and incubated for 3 h under cell culture conditions. The reaction was stopped with 100 µL of stop solution (50 mM Tris-HCl, […]
Trypsin) and incubated for 1.5 h under cell culture conditions. The fluorescence signal was measured by a FLUOstar OPTIMA microplate reader (BMG labtech, Ortenburg, Germany) at excitation of λ = 355 nm and emission of λ = 460 nm. All Compounds were tested in two independent experiments in duplicates and IC50 was determined by nonlinear regression with GraphPad Prim.

The subject of another test is MDA-MB-231 cells. Put plainly: MTT cell viability assay. In kind it is cell-based, human. The following applies: 72 h, n.e.: no effect (≤25 % effect up to 50 μM); for EC50: Homo sapiens, MDA-MB-231. As for the experimental part: GraphPad Prism (GraphPad Software).
2.8. MTT Cell Viability Assay
U-87MG cells (3 × 10^3 cells/well) or MDA-MB-231 cells (5 × 10^3 cells/well) were seeded in 96-well flat-bottomed plates. After 24 h the cells were incubated with the stock solutions of the respective compounds dissolved in DMSO (highest DMSO concentration, 0.5%) to reach the final concentrations as indicated. Controls received DPBS or DMSO. Following a 71 h incubation period 20 µl of a freshly prepared 5 mg/ml MTT (3-(4,5-dimethylthiazol-2-yl)-2,5-diphenyltetrazolium bromide, AppliChem GmbH, Darmstadt, Germany) solution were added into each well. The supernatant was discarded after 1 h incubation at 37 °C and the precipitated formazan was dissolved in 200 µl DMSO/well. Absorption was measured at 570 nm with background subtraction at 690 nm using a photometric microplate reader (Thermo Scientific Multiskan EX, Thermo Fisher Scientific). Data was further subtracted by the DMSO control and normalized on DPBS. The half-maximal effective concentration (EC50) was determined by plotting dose response curves and nonlinear regression with GraphPad Prism (GraphPad Software). […]
In general terms: Formazan colour is commonly taken as a measure of viable cells.

Sequence of HDAC1 (Q13547 whole entry): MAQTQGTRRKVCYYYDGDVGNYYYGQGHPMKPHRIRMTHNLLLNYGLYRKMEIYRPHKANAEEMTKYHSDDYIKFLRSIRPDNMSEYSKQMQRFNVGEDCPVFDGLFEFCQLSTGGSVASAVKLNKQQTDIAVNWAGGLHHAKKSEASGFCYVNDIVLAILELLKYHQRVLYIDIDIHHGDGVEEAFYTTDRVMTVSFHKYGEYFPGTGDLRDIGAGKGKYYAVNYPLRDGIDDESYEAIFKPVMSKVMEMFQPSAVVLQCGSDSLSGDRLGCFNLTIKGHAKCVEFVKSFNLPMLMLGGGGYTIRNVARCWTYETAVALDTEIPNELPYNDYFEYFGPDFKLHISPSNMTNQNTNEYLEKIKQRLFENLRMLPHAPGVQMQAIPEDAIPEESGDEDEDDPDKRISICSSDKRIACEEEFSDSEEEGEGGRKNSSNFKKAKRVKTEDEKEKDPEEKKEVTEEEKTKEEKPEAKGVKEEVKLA

Consider `O=CN(CCCCCCCCCCCC(=O)Nc1ccc(C(=O)NCCCCCCC(=O)NO)cc1)C(C(=O)NCc1ccccc1)c1ccc(Cl)c(Cl)c1` (centres unmarked) [Compound 1j-nc], for which the “effect on HDAC1 protein levels” value at HDAC1 (14 h) was “not able to affect the protein levels of HDAC1 and 6”. For the same molecule, the “EC50 MDA-MB-231” value in the test on MDA-MB-231 cells is “n.e”; in the test on MDA-MB-231 cells (listed as 1j‐nc), “no activity”.
A word on the EC50: it is the concentration needed to bring the measured effect to its halfway point. Lower therefore signals greater potency. For the molecule `O=C(CCCCCCNC(=O)c1ccc(NC(=O)CCCCCCCCCCCN(C(=O)CCl)C(C(=O)NCc2ccccc2)c2ccc(Cl)c(Cl)c2)cc1)NO` (centres unmarked) [Compound 1j], the “reduction of HDAC1 levels” value at HDAC1 amounted to 71%. In addition, the “time dependent degradation of HDAC1” value on HDAC1 (after 6 h) was “significant degradation”. In the test on MDA-MB-231 cells, this molecule showed an EC50 of 28 ± 10 µM.
With `O=C(CCCCCCNC(=O)c1ccc(N(C(=O)CCl)C(C(=O)NCc2ccccc2)c2ccc(Cl)c(Cl)c2)cc1)NO` (centres unmarked) [Compound 2], the “reduction of HDAC1 levels” value on HDAC1 is 55%. In the test on MDA-MB-231 cells, this molecule displayed a concentration for a half-maximal effect (EC50) of 8.8 ± 3.2 µM.

For the origin of these results see paper PMC12091851, “Replacing a Cereblon Ligand by a DDB1 and CUL4 Associated Factor 11 (DCAF11) Recruiter Converts a Selective Histone Deacetylase 6 PROTAC into a Pan‐Degrader” (Chemmedchem, 2025).
